Experimental data: patent US20230322753A1, “HETEROARYL DERIVATIVE, METHOD FOR PREPARATION THEREOF, AND PHARMACEUTICAL COMPOSITION COMPRISING SAME AS ACTIVE INGREDIENT” (VORONOI INC., priority 2020, published 2023)

Tested on: Ba/F3 cells expressing EGFR Exon20 ins NPH
Assay: Ba/F3 proliferation suppression activity, cells expressing EGFR Exon20 ins NPH
Assay type: cell-based
Conditions: Mus musculus, BaF3, 72 hours, CellTiter-Glo
Description: A following experiment was carried out to evaluate the suppression activity of the compounds according to the present invention against the proliferation of Ba/F3 which expresses EGFR mutations.
For the Ba/F3 cells, a RPMI-1640 medium containing 10% FBS and 5 ng/ml IL-3 (R&D Systems) was used. The transduced Ba/F3 cells were cultured in a medium, which is same as the above medium, but 1 ug/ml puromycin (Invitrogen) was additionally added to.
24 hours before the treatment of the cells with the compounds, 3000 to 5000 cells were distributed into each well of a white clear bottom 96 well plate (Corning). The compounds were diluted in a dimethyl sulfoxide (e.g. dilution ratio of 3:1 and total 12 concentrations) and then injected by 0.5 ul respectively, such that a final concentration amounted to 0.3 nM to 50 uM. 72 hours after the treatment with the compounds, the measurement of live cells was made in such way that these cells were stored for 10 minutes at a room temperature using a CellTiter-Glo luminescent cell-viability reagent (Promega) and then their luminescence intensities were measured using a reader (i.e. Synergy Neo, Biotek). Each test was repeated three times.
resulting values were calculated as a cell growth ratio (%) compared to a control. Then, the graphs were drawn and the […] values were calculated by using a program, GraphPad Prism version 5.0.

Structure (SMILES) | GI50
C=CC(=O)Nc1cc(Nc2cc(N3OCC[C@@H]3c3cc(F)cc(C(F)(F)F)c3)ncn2)c(OC)cc1N1CCN(C2CC2)CC1 [Compound 2] | 50 to 500 nM
C=CC(=O)Nc1cc(Nc2cc(N3OCC[C@@H]3c3cc(F)cc(C(F)(F)F)c3)ncn2)c(OC)cc1N1CCN(C)CC1 [Compound 3] | 50 to 500 nM
C=CC(=O)Nc1cc(Nc2cc(N3OCC[C@@H]3c3cc(F)cc(C(F)(F)F)c3)ncn2)c(OC)cc1N1CCN(CC)CC1 [Compound 4] | < 50 nM
C=CC(=O)Nc1cc(Nc2cc(N3OCC[C@@H]3c3cc(F)cc(C(F)(F)F)c3)ncn2)c(OC)cc1N1CCN(C2CC2)[C@H](C)C1 [Compound 5] | 50 to 500 nM
C=CC(=O)Nc1cc(Nc2cc(N3OCC[C@@H]3c3cc(F)cc(C(F)(F)F)c3)ncn2)c(OC)cc1N1CCN(C2CC2)[C@@H](C)C1 [Compound 6] | 50 to 500 nM
C=CC(=O)Nc1cc(Nc2cc(N3OCC[C@@H]3c3cccc(C(F)(F)F)c3)ncn2)c(OC)cc1N1CCN(C)[C@@H](C)C1 [Compound 7] | < 50 nM
C=CC(=O)Nc1cc(Nc2cc(N3OCC[C@@H]3c3cccc(C(F)(F)F)c3)ncn2)c(OC)cc1N1CCN(C)[C@H](C)C1 [Compound 8] | < 50 nM
C=CC(=O)Nc1cc(Nc2cc(N3OCC[C@@H]3c3cccc(C(F)(F)F)c3)ncn2)c(OC)cc1N1CCN(C2CC2)[C@H](C)C1 [Compound 9] | 50 to 500 nM
C=CC(=O)Nc1cc(Nc2cc(N3OCC[C@@H]3c3cccc(C(F)(F)F)c3)ncn2)c(OC)cc1N1CCN(C2CC2)[C@@H](C)C1 [Compound 10] | 50 to 500 nM
C=CC(=O)Nc1cc(Nc2cc(N3OCC[C@@H]3c3cc(F)cc(C(F)(F)F)c3)ncn2)c(OC)cc1N1CCN(C)[C@H](C)C1 [Compound 11] | 50 to 500 nM
C=CC(=O)Nc1cc(Nc2cc(N3OCC[C@@H]3c3cc(F)cc(C(F)(F)F)c3)ncn2)c(OC)cc1N1CCN(C)[C@@H](C)C1 [Compound 12] | 50 to 500 nM
C=CC(=O)Nc1cc(Nc2cc(N3OCC[C@@H]3c3cccc(C(F)(F)F)c3)ncn2)c(OC)cc1N1CCC(N2CCC(N3CCN(C4CC4)CC3)CC2)CC1 [Compound 13] | 50 to 500 nM
C=CC(=O)Nc1cc(Nc2cc(N3OCC[C@@H]3c3cccc(C(F)(F)F)c3)ncn2)c(OC)cc1N1CCC(N2CCC(N3CCN(C)CC3)CC2)CC1 [Compound 14] | 50 to 500 nM
C=CC(=O)Nc1cc(Nc2cc(N3OCC[C@@H]3c3cc(F)cc(C(F)(F)F)c3)ncn2)c(OC)cc1N1CCC(N(C)C)CC1 [Compound 15] | 50 to 500 nM
C=CC(=O)Nc1cc(Nc2cc(N3OCC[C@@H]3c3cc(F)cc(C(F)(F)F)c3)ncn2)c(OC)cc1N1CCC(N(CC)CC)CC1 [Compound 16] | < 50 nM
C=CC(=O)Nc1cc(Nc2cc(N3OCC[C@@H]3c3cc(F)cc(C(F)(F)F)c3)ncn2)c(OC)cc1N(C)CCN(C)C [Compound 17] | < 50 nM
C=CC(=O)Nc1cc(Nc2cc(N3OCC[C@@H]3c3cc(F)cc(C(F)(F)F)c3)ncn2)c(OC)cc1N1CCC(N2CCCC2)CC1 [Compound 18] | < 50 nM
C=CC(=O)Nc1cc(Nc2cc(N3OCC[C@@H]3c3cc(F)cc(C(F)(F)F)c3)ncn2)c(OC)cc1N1CCC(N2CCC2)CC1 [Compound 19] | < 50 nM
C=CC(=O)Nc1cc(Nc2cc(N3OCC[C@@H]3c3cccc(C(F)(F)F)c3)ncn2)c(OC)cc1N1CCC(N(CC)CC)CC1 [Compound 20] | < 50 nM
C=CC(=O)Nc1cc(Nc2cc(N3OCC[C@@H]3c3cccc(C(F)(F)F)c3)ncn2)c(OC)cc1N1CCC(N2CCC2)CC1 [Compound 21] | < 50 nM
C=CC(=O)Nc1cc(Nc2cc(N3OCC[C@@H]3c3cccc(C(F)(F)F)c3)ncn2)c(OC)cc1N1CCC(N2CCCC2)CC1 [Compound 22] | < 50 nM
C=CC(=O)Nc1cc(Nc2cc(N3OCC[C@@H]3c3cccc(C(F)(F)F)c3)ncn2)c(OC)cc1N1CCN(C2COC2)CC1 [Compound 23] | < 50 nM
C=CCN1CCN(c2cc(OC)c(Nc3cc(N4OCC[C@@H]4c4cccc(C(F)(F)F)c4)ncn3)cc2NC(=O)C=C)CC1 [Compound 24] | < 50 nM
C=CC(=O)Nc1cc(Nc2cc(N3OCC[C@@H]3c3cccc(C(F)(F)F)c3)ncn2)c(OC)cc1N1CCN(CC2CC2)CC1 [Compound 25] | < 50 nM
C=CC(=O)Nc1cc(Nc2cc(N3OCC[C@@H]3c3cccc(C(F)(F)F)c3)ncn2)c(OC)cc1N1CCCN(C)CC1 [Compound 26] | < 50 nM
C=CC(=O)Nc1cc(Nc2cc(N3OCC[C@@H]3c3cccc(C(F)(F)F)c3)ncn2)c(OC)cc1N1CCOCC1 [Compound 27] | < 50 nM
C=CC(=O)Nc1cc(Nc2cc(N3OCC[C@@H]3c3cccc(C(F)(F)F)c3)ncn2)c(OC)cc1N1C[C@H]2C[C@@H]1CO2 [Compound 28] | 50 to 500 nM
C=CC(=O)Nc1cc(Nc2cc(N3OCC[C@@H]3c3cccc(C(F)(F)F)c3)ncn2)c(OC)cc1N1CCCN(C2CC2)CC1 [Compound 29] | 50 to 500 nM

Structure (SMILES) | GI50
C=CC(=O)Nc1cc(Nc2cc(N3OCC[C@@H]3c3cccc(C(F)(F)F)c3)ncn2)c(OC)cc1N1C[C@@H]2C[C@H]1CO2 [Compound 30] | 50 to 500 nM
C=CC(=O)Nc1cc(Nc2cc(N3OCC[C@@H]3c3cccc(C(F)(F)F)c3)ncn2)ccc1N1CCN(C)CC1 [Compound 31] | 50 to 500 nM
C=CC(=O)Nc1cc(Nc2cc(N3OCC[C@@H]3c3ccc(Cl)c(C(F)(F)F)c3)ncn2)c(OC)cc1N1CCN(C)CC1 [Compound 32] | 50 to 500 nM
C=CC(=O)Nc1cc(Nc2cc(N3OCC[C@@H]3c3ccc(Cl)c(C(F)(F)F)c3)ncn2)c(OC)cc1N1CCN(CC)CC1 [Compound 33] | 50 to 500 nM
C=CC(=O)Nc1cc(Nc2cc(N3OCC[C@@H]3c3ccc(Cl)c(C(F)(F)F)c3)ncn2)c(OC)cc1N1CCC(N2CCN(C3CC3)CC2)CC1 [Compound 34] | 50 to 500 nM
C=CC(=O)Nc1cc(Nc2cc(N3OCC[C@@H]3c3ccc(Cl)c(C(F)(F)F)c3)ncn2)c(OC)cc1N1CCC(N(C)C)CC1 [Compound 35] | 50 to 500 nM
C=CC(=O)Nc1cc(Nc2cc(N3OCC[C@@H]3c3ccc(F)c(C(F)(F)F)c3)ncn2)c(OC)cc1N(C)CCN(C)C [Compound 36] | < 50 nM
C=CC(=O)Nc1cc(Nc2cc(N3OCC[C@@H]3c3ccc(F)c(C(F)(F)F)c3)ncn2)c(OC)cc1N1CCN(CC)CC1 [Compound 38] | < 50 nM
C=CC(=O)Nc1cc(Nc2cc(N3OCC[C@@H]3c3ccc(F)c(C(F)(F)F)c3)ncn2)c(OC)cc1N1CCC(N(C)C)CC1 [Compound 39] | < 50 nM
C=CC(=O)Nc1cc(Nc2cc(N3OCC[C@@H]3c3ccc(F)c(C(F)(F)F)c3)ncn2)c(OC)cc1N1CCCN(C)CC1 [Compound 40] | < 50 nM
C=CC(=O)Nc1cc(Nc2cc(N3OCC[C@@H]3c3ccc(F)c(C(F)(F)F)c3)ncn2)c(OC)cc1N1CCN(CC2CC2)CC1 [Compound 42] | < 50 nM
C=CC(=O)Nc1cc(Nc2cc(N3OCC[C@@H]3c3ccc(F)c(C(F)(F)F)c3)ncn2)c(OC)cc1N1CC[C@@H](N(C)C)C1 [Compound 43] | < 50 nM
C=CC(=O)Nc1cc(Nc2cc(N3OCC[C@@H]3c3ccc(F)c(C(F)(F)F)c3)ncn2)c(OC)cc1N1CCN(C)[C@@H](C)C1 [Compound 44] | < 50 nM
C=CC(=O)Nc1cc(Nc2cc(N3OCC[C@@H]3c3ccc(F)c(C(F)(F)F)c3)ncn2)c(OC)cc1N1C[C@H]2C[C@@H]1CO2 [Compound 45] | 50 to 500 nM
C=CC(=O)Nc1cc(Nc2cc(N3OCC[C@@H]3c3ccc(F)c(C(F)(F)F)c3)ncn2)c(OC)cc1N1CCN(C(C)=O)CC1 [Compound 46] | < 50 nM
C=CC(=O)Nc1cc(Nc2cc(N3OCC[C@@H]3c3ccc(F)c(C(F)(F)F)c3)ncn2)c(OC)cc1N1CCC(N(CC)CC)CC1 [Compound 47] | < 50 nM
C=CC(=O)Nc1cc(Nc2cc(N3OCC[C@@H]3c3ccc(F)c(C(F)(F)F)c3)ncn2)c(OC)cc1N1CCC(N2CCC2)CC1 [Compound 48] | < 50 nM
C=CC(=O)Nc1cc(Nc2cc(N3OCC[C@@H]3c3ccc(F)c(C(F)(F)F)c3)ncn2)c(OC)cc1N1CCC(N2CCN(C3CC3)CC2)CC1 [Compound 49] | < 50 nM
C=CC(=O)Nc1cc(Nc2cc(N3OCCC3c3cc(Cl)cc(C(F)(F)F)c3)ncn2)c(OC)cc1N1CCN(CC)CC1 (stereo not shown) [Compound 50] | 50 to 500 nM
C=CC(=O)Nc1cc(Nc2cc(N3OCCC3c3cc(Cl)cc(C(F)(F)F)c3)ncn2)c(OC)cc1N1CCC(N2CCN(C3CC3)CC2)CC1 (stereo not shown) [Compound 51] | 50 to 500 nM
C=CC(=O)Nc1cc(Nc2cc(N3OCC[C@@H]3c3ccc(F)c(C(F)(F)F)c3)ncn2)c(OC)cc1N1C[C@@H]2C[C@H]1CO2 [Compound 54] | 50 to 500 nM
C=CC(=O)Nc1cc(Nc2cc(N3OCC[C@@H]3c3ccc(F)c(C(F)(F)F)c3)ncn2)c(OC)cc1N1CCO[C@@H](C)C1 [Compound 56] | 50 to 500 nM
C=CC(=O)Nc1cc(Nc2cc(N3OCC[C@@H]3c3ccc(F)c(C(F)(F)F)c3)ncn2)c(OC)cc1N1CCO[C@H](C)C1 [Compound 57] | 50 to 500 nM
C=CC(=O)Nc1cc(Nc2cc(N3OCC[C@@H]3c3ccc(F)c(C(F)(F)F)c3)ncn2)c(OC)cc1N1CCC(N2CCO[C@H](C)C2)CC1 [Compound 59] | < 50 nM
C=CC(=O)Nc1cc(Nc2cc(N3OCC[C@@H]3c3ccc(F)c(C(F)(F)F)c3)ncn2)c(OC)cc1N1CCOCC1 [Compound 63] | 50 to 500 nM
C=CC(=O)Nc1cc(Nc2cc(N3OCC[C@@H]3c3ccc(F)c(C(F)(F)F)c3)ncn2)c(OC)cc1N1CCC(N2CCOCC2)CC1 [Compound 64] | < 50 nM
C=CC(=O)Nc1cc(Nc2cc(N3OCC[C@@H]3c3cccc(C(F)(F)F)c3F)ncn2)c(OC)cc1N1CCOCC1 [Compound 65] | 50 to 500 nM
